Source: patent publication EP4759816A1, “UREA-CONTAINING […] ß-LACTAMASE INHIBITOR, PREPARATION METHOD THEREFOR AND USE THEREOF” (priority 2023, dated 2025)
Read-outs that look alike come from different tables or passages of the source.

Tests used:
E. coli ATCC 35218 = assay: MIC by broth microdilution, β-lactam antibiotic combined with β-lactamase inhibitor; assay type: cell-based; details: Escherichia coli, ATCC35218; E. coli ATCC 35218, expresses TEM-1; MIC of the antibiotic, inhibitor fixed at 4 mg/L; read-out: Antibacterial Activity (MIC50)
Description: (§1) The minimum inhibitory concentration (MIC) of the Example compounds (at a concentration of 4 mg/L) in combination with β-lactam antibiotics (ceftazidime, cefepime, meropenem, imipenem, aztreonam) against bacterial strains was tested using the broth microdilution method recommended by the Clinical and Laboratory Standards Institute (CLSI, formerly NCCLs) [Methods for Dilution Antimicrobial Susceptibility Tests for Bacteria That Grow Aerobically; Approved Standard-tenth Edition M07-A10, 2015]. The specific test materials and procedures are as follows.
(§2) The standard strains used in this experiment were purchased ATCC strains. The clinical strains used were strains resistant to some or all marketed β-lactam antibiotics, isolated and identified by domestic public hospitals, and the types of β-lactamases they express were determined. Before the experiment, each bacterial strain was purified by streaking single colonies on an agar plate, and fresh bacterial cultures grown overnight at 37°C were appropriately diluted for the experiment.
(§3) CAMHB (Cation Adjusted Mueller-Hinton) medium, incubated at 35-37°C in air for 16-20 h.
(§4) CAMHB Formula: Acid-hydrolyzed casein (17.5 g/L), beef extract (3.0 g/L), soluble starch (1.5 g/L), calcium ions (20-25 mg/L), magnesium ions (10-12.5 mg/L).
(§5) Stock solutions at 4 times the working concentration were prepared in CAMHB broth for the combinations of antibiotics (ceftazidime, cefepime, meropenem, aztreonam) and Example compounds. The final concentrations of antibiotics in the stock solutions were 256, 128, 64, 32, 16, 8, 4, 2, 1, 0.5, 0.25, 0.125 mg/L, respectively. The final concentration of avibactam, relebactam, or Example compounds was 4 mg/L.
(§6) Several colonies were picked from an 18-24 h cultured agar plate and suspended directly in sterile physiological saline to prepare a bacterial suspension. The turbidity of the suspension was adjusted to 0.5 McFarland standard. The adjusted bacterial suspension was diluted with CAMHB broth to (4-8) × 10^5 CFU/mL and used immediately.
(§7) Test Group: 50 µL of the antibiotic (ceftazidime, cefepime, meropenem, imipenem, aztreonam) stock solution and 50 µL of the β-lactamase inhibitor (avibactam, relebactam, or Example compound) stock solution were added to wells 1 to 12 of a sterile 96-well polystyrene plate. Then, 100 µL of CAMHB containing the test bacterial suspension was added to each well, making a total volume of 200 µL per well. The final drug concentrations in the wells were 64, 32, 16, 8, 4, 2, 1, 0.5, 0.25, 0.125, 0.06, 0.03 mg/L, respectively. […]
(§8) The inoculated 96-well polystyrene plates were sealed and placed in an incubator at 35-37°C for 16-20 h before reading the results. […]

E. coli ATCC 25922 = assay: as above; assay type: cell-based; details: Escherichia coli, ATCC25922; E. coli ATCC 25922, β-lactamase expressed: -; MIC of the antibiotic, inhibitor fixed at 4 mg/L; read-out: Antibacterial Activity (MIC50)
Description: as §1, §2, §3, §4, §5, §6, §7, §8

E. Coli NCTC 13353 = assay: as above; assay type: cell-based; details: Escherichia coli, NCTC13353; E. Coli NCTC 13353, expresses CTX-M-15; MIC of the antibiotic, inhibitor fixed at 4 mg/L; read-out: Antibacterial Activity (MIC50)
Description: as §1, §2, §3, §4, §5, §6, §7, §8

P. aeruginosa ATCC 27853 = assay: as above; assay type: cell-based; details: Pseudomonas aeruginosa, ATCC27853; P. aeruginosa ATCC 27853, expresses AmpC; MIC of the antibiotic, inhibitor fixed at 4 mg/L; read-out: Antibacterial Activity (MIC50)
Description: as §1, §2, §3, §4, §5, §6, §7, §8

K.Pneumoniae BAA-1705 = assay: as above; assay type: cell-based; details: Klebsiella pneumoniae, BAA1705; K.Pneumoniae BAA-1705, expresses KPC-2; MIC of the antibiotic, inhibitor fixed at 4 mg/L; read-out: Antibacterial Activity (MIC50)
Description: CAMHB (Cation Adjusted Mueller-Hinton) medium, incubated at 35-37°C in air for 16-20 h. […]

KPC-2 = KPC-2 (Klebsiella pneumoniae, UniProt Q9F663); assay: β-Lactamase inhibitory activity test, nitrocefin substrate; assay type: biochemical
Chain of KPC-2 (Q9F663 25-293 limits assumed): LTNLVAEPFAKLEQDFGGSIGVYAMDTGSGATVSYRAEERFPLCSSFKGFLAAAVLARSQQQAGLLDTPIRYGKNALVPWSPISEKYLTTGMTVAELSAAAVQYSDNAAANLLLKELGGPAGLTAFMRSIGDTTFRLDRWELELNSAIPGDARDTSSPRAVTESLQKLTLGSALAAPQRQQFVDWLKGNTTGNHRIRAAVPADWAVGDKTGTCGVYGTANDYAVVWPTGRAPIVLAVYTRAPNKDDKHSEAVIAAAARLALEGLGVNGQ
Description: (§9) The IC50 of β-lactamase inhibitors against β-lactamases was tested using nitrocefin as the substrate. The enzyme and serially diluted β-lactamase inhibitor were incubated in 50 mM phosphate buffer (containing 0.1 mg/mL bovine serum albumin) at 37°C for 10 minutes. The reaction was initiated by adding 100 µM nitrocefin, and the reaction temperature was set to 37°C. The absorbance at 490 nm was recorded every minute for a total of 1 hour. The initial reaction rate was calculated, and the IC50 was calculated using GraphPad Prism software. Table 4. Inhibitory activity (IC50, mg/L) of compounds against β-lactamases

OXA-23 = OXA-23 (Acinetobacter baumannii, UniProt Q9L4P2); assay: as above; assay type: biochemical
Chain of OXA-23 (Q9L4P2 18-273): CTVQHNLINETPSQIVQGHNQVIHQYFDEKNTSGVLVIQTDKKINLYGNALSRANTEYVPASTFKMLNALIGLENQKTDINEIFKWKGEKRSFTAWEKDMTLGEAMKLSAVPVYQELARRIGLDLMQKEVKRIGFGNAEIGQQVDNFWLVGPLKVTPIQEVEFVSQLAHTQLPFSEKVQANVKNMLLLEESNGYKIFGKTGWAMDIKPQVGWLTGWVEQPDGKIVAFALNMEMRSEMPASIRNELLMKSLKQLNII
Description: as §9

TEM-1 = TEM-1 (Escherichia coli, UniProt P62593); assay: as above; assay type: biochemical
Chain of TEM-1 (P62593 24-286 limits assumed): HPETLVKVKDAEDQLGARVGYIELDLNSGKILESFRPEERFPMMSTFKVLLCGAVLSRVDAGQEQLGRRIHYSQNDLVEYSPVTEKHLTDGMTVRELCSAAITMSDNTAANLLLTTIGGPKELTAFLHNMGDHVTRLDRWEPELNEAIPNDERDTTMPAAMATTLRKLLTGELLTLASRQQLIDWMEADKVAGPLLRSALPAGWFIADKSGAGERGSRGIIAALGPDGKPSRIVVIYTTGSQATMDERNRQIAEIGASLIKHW
Description: as §9

OXA-10 = OXA-10 (Pseudomonas aeruginosa, UniProt P14489); assay: as above; assay type: biochemical
Chain of OXA-10 (P14489 20-266): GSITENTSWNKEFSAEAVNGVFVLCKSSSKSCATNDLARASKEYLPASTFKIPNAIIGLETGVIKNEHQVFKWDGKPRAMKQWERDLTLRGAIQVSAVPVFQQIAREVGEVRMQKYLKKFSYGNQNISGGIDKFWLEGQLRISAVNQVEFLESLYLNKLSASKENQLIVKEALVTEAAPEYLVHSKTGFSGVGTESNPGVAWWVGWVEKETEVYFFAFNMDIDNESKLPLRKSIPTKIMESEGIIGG
Description: as §9

[1] = TEM-1, enzyme family A, 100 µM nitrocefin, 37°C, 10 minutes preincubation, read-out: Inhibitory activity (IC50)

| SMILES | MIC50 (E. coli ATCC 35218) [µg/mL] | MIC50 (E. coli ATCC 25922) [µg/mL] | MIC50 (E. Coli NCTC 13353) [µg/mL] | MIC50 (P. aeruginosa ATCC 27853) [µg/mL] | MIC50 (K.Pneumoniae BAA-1705) [µg/mL] | IC50 (KPC-2) [nM] | IC50 (OXA-23) [nM] | IC50 (TEM-1; [1]) [nM] | IC50 (OXA-10) [nM] | IC50 (TEM-1) [nM] |
| --- | --- | --- | --- | --- | --- | --- | --- | --- | --- | --- |
| CC(C)(O/N=C(\C(=O)N[C@@H]1C(=O)N2C(C(=O)[O-])=C(C[n+]3ccccc3)CS[C@H]12)c1csc(N)n1)C(=O)O [Ceftazidime] | 0.1 to 1 | 0.1 to 1 | > 10 | 1 to 10 | > 10 | – | – | – | – | – |
| O=C1N2Cc3c(ccn3S(=O)(=O)c3ccccc3)C(C2)N1OS(=O)(=O)O (centres unmarked) [Example 1 Compound] | – | – | – | – | – | < 1000 | < 1000 | < 1000 | < 1000 | – |
| CS(=O)(=O)n1ccc2c1CN1CC2N(OS(=O)(=O)O)C1=O (centres unmarked) [Example 2 Compound] | – | – | – | – | – | < 1000 | < 1000 | < 1000 | < 1000 | – |
| CS(=O)(=O)n1ccc2c1CN1C[C@@H]2N(OS(=O)(=O)O)C1=O [Example 3 Compound] | – | – | – | – | – | < 1000 | < 1000 | < 1000 | < 1000 | – |
| CCS(=O)(=O)n1ccc2c1CN1C[C@@H]2N(OS(=O)(=O)O)C1=O [Example 4 Compound] | – | – | – | – | – | < 1000 | 1000 to 10000 | – | – | < 1000 |
| O=C1N2Cc3c(ccn3S(=O)(=O)c3cccnc3)[C@H](C2)N1OS(=O)(=O)O [Example 10 Compound] | – | – | – | – | – | < 1000 | < 1000 | – | – | < 1000 |
| Cn1cc(S(=O)(=O)n2ccc3c2CN2C[C@@H]3N(OS(=O)(=O)O)C2=O)cn1 [Example 11 Compound] | – | – | – | – | – | < 1000 | 1000 to 10000 | – | – | < 1000 |
| CS(=O)(=O)n1ccc2c1C(C(N)=O)N1CC2N(OS(=O)(=O)O)C1=O (centres unmarked) [Example 14 Compound] | – | – | – | – | – | < 1000 | 10000 to 100000 | – | – | < 1000 |
| NC(=O)C1c2c(ccn2S(=O)(=O)C2CC2)C2CN1C(=O)N2OS(=O)(=O)O (centres unmarked) [Example 15 Compound] | – | – | – | – | – | > 100000 | > 100000 | – | – | > 100000 |
